Source: patent US20250144087A1, “USE OF VE607 FOR THE TREATMENT OF SARS-COV-2 INFECTIONS AND RELATED DISEASES” (priority 2022, published 2025)
pIC50: −log10 of the molar value.

Experiments:
[1] = tested on: pseudoviral particles expressing the Spike from SARS-CoV-2; experiment: microbe, parasite or virus in culture; assay type: cell-based
[2] = molecular target: T1, SARS-CoV-2 RBD (Severe acute respiratory syndrome coronavirus 2, UniProt P0DTC2); assay type: binding
T1 construct: hexahistidine (C); made in house; host or cells: FreeStyle 293 F cells

[3] = tested on: pseudoviral particles bearing the VSV-G; experiment: microbe, parasite or virus in culture; assay type: cell-based; details: Vesicular stomatitis virus, HEK-293T
[4] = tested on: VERO-E6 cells; experiment: Toxicity on VERO-E6 cells, AquaVivid staining; details: concentrations up to 100 μM
[5] = tested on: SARS-CoV-2 S glycoprotein
[6] = tested on: pseudoviral particles bearing the SARS-CoV-1 Spike; experiment: microbe, parasite or virus in culture; assay type: cell-based; details: Severe acute respiratory syndrome coronavirus, HEK-293T

O[C@H](COc1cccc(OC[C@H](O)CN2CCCCC2)c1)CN1CCCCC1 [(R,S)-VE607]
fold less potent than the two other enantiomers in SARS-CoV-2 pseudoviral inhibition ([1]; SARS-CoV-2 S pseudoviral particles): about 2 fold

CN1CCN(c2ccc(CNC(=O)c3ccno3)cc2)CC1 [SSAA09E2, reference compound]
ΔTm (change of melting temperature of RBD) [2]: −0.7 °C | effect on the infection of pseudoviral particles [1]: no effect

C=CCC(/C=C/OCC(O)CN(CC)CCC)OCC(O)CN(CC)CCC (stereo not shown) [VE607]
ΔTm (change of melting temperature of RBD) [2]: −2.3 °C | pIC50 [3]: < 4.00 | toxicity [4]: no toxicity was observed | effect on Spike conformational landscape (up/down) [5]: stabilized the “up” conformation | pIC50 [6]: 5.83 | pIC50 ([1]; Severe acute respiratory syndrome coronavirus 2, HEK-293T): 5.51

sACE2
effect on Spike conformational landscape (up/down) [5]: shifted the conformational landscape of the Spike to the “up” conformation
